pEC50: −log10 of the molar value.
Columns and labels:
[1] = Half life in mouse plasma at 10 umol/L measured up to 4 hrs by mass spectrometry; assay type: ADME, cell-free
[2] = Induction of neurite growth in rat hippocampal neurons incubated for 48 hrs by high content analysis; assay type: functional, cell-based; details: Hippocampal neurone
[3] = Induction of rat DRG neuron growth assessed as increase in total neurite length at 1 uM incubated for 24 hrs by […] staining based assay relative to control; assay type: functional
Rattus norvegicus = experiment: Induction of optic nerve axon regeneration in Sprague-Dawley rat model of optic nerve crush injury assessed as increase in average length of the longest regenerating axons at 100 uM administered intravitreally on day 3,7 and 10 post injury and measured on day 13 post injury by Alexa Fluor 488/CTB-488 staining based confocal microscopic analysis relative to control; assay type: functional
[4] = Induction of CSPG-treated human induced sensory neuron growth at 2 uM for 24 hrs by immunostaining method relative to control; assay type: functional
[5] = Induction of CSPG-treated C57BL/6J mouse DRG neuron growth at 25 uM incubated for 24 hrs by Alexa Fluor 488 staining based assay relative to control; assay type: functional

With `COc1ccc(O)c(C(=O)c2ccc(C(=O)O[C@@H]3CCCNC[C@H]3NC(=O)c3ccncc3)cc2)c1F` the half-life at 10 µM [1] was < 1 min.
For `O=S(=O)(c1cccc2c(I)cccc12)N1CCCNCC1`, the pEC50 [2] was 7.13.
`Cc1ccc(-c2nc(NCCOCCOCCN)nc(N3CCN(c4ccccn4)CC3)n2)cc1` gave an Activity [3] of 50% and an Activity (Rattus norvegicus) of 56%.
In the case of `COc1ccc([C@@H]2Sc3ccccc3N(CCN(C)C)C(=O)[C@@H]2OC(C)=O)cc1` [DILTIAZEM], the “fold change (FC)” value [4] was 1.5 and the “fold change (FC)” value [5] was 2.

Source: ChEMBL document CHEMBL4376819, “The Rise of Molecules Able To Regenerate the Central Nervous System” (J Med Chem, 2020)
